Test results: patent US20060067959A1, “Compositions and methods for treatment of solar damage” (priority 2004, published 2006)

Tests used:
NIH 3T3 cells = system: NIH 3T3 cells
Procedure: NIH 3T3 cells were used in these studies. Cells were cultured in 24-well plates at a density of […] in 10% FBS/DMEM overnight. […] Cells were incubated for 72 hours before cell counting and morphological studies.

bovine tendon = biological target: T1, bovine tendon (Bos taurus, UniProt P02453+P02465); assay: Melting temperature measurement of fixed tendon; details: treated 48 hours, n = 3; PA 0.5% in PBS, GA 0.625% in PBS; untreated control 55 ± 0.5; in °C
T1 construct: Fresh bovine tendon; from tissue; host or cells: bovine tendon
Procedure: (§1) The fixed tissues and fresh tissues were assayed for their melting temperature by heating tissue strips (1×2 cm^2, n=3). The melting temperature was recorded when tissues started to shrink.

bovine pericardium [1] = assay: Melting temperature measurement of fixed pericardium; details: treated 48 hours, n = 3; PA 0.5% in PBS, GA 0.625% in PBS; untreated control 70 ± 1.0; in °C
Procedure: as §1

bovine pericardium [2] = assay: In vitro enzymatic degradation by collagenase, H&E histology; details: 24 h digestion, 0.5% proanthocyanidin or 0.625% GA treated, fresh tissues disintegrated
Procedure: Tissue integrity was checked at the end of the incubation using a standard histological method (hematoxylin-eosin (H&E)). […] At predetermined intervals, 1.0 mL solution was taken out and filtered through an 0.45-μM cellulose filter to separate solubilized collagen from insolubilized matrix. The amount of solubilized collagen was determined after total acid hydrolysis in 6N HCl for 24 h at 100° C. by measuring hydroxyproline (R. Kultan et al., “Collagen Treated with (+)-Catechin Becomes Resistant to the Action of Mammalian Collagenase,” Experientia 37: 221-223 (1981)). The results are expressed as a percentage of the total collagen solubilized.

human skin fibroblasts = assay: Cell proliferation and collagen synthesis on treated pericardium; assay type: cell-based; details: discussion summary
Procedure: Discs, 15 mm in diameter, were punched out from PA-treated bovine pericardium and inserted into the bottom of 24-well plates, After washing and equilibrating with PBS, human skin fibroblasts, 8×10^4/well, third passage (kindly provided by Dr. Warren Garner, University of Southern California) were placed on top of the tissues. After 48 h of culture in 10% FBS/DMEM, the medium was changed to labeling medium ([^3H]thymidine, 10 μCi/mL, 0.5% FBS/DMEM) followed by a 24-h labeling period. Cells proliferation was assayed and collagen synthesis recorded as [^3H]OH-proline incorporation in a culture medium containing 25 μg/mL ascorbic acid, 25 μg/mL β-APN and 25 μCi/mL [^3H]proline in 0.5% FBS/DMEM after labeling for 48 h.

Fischer 344 rats = assay: Subcutaneous implantation of treated tissue
Text: Three-week-old Fischer 344 rats were obtained from Harlan Sprague Dawley, Inc. (Indianapolis, Ind.). NIH and University of Southern California IACUC guidelines for the care and use of laboratory animals were observed. […] The samples were retrieved after 3 and 6 weeks postoperation, and samples were processed for H&E and von Kossa staining, the latter to determine the extent of calcification.

T1 sequence (P02453 162-1217 limits assumed): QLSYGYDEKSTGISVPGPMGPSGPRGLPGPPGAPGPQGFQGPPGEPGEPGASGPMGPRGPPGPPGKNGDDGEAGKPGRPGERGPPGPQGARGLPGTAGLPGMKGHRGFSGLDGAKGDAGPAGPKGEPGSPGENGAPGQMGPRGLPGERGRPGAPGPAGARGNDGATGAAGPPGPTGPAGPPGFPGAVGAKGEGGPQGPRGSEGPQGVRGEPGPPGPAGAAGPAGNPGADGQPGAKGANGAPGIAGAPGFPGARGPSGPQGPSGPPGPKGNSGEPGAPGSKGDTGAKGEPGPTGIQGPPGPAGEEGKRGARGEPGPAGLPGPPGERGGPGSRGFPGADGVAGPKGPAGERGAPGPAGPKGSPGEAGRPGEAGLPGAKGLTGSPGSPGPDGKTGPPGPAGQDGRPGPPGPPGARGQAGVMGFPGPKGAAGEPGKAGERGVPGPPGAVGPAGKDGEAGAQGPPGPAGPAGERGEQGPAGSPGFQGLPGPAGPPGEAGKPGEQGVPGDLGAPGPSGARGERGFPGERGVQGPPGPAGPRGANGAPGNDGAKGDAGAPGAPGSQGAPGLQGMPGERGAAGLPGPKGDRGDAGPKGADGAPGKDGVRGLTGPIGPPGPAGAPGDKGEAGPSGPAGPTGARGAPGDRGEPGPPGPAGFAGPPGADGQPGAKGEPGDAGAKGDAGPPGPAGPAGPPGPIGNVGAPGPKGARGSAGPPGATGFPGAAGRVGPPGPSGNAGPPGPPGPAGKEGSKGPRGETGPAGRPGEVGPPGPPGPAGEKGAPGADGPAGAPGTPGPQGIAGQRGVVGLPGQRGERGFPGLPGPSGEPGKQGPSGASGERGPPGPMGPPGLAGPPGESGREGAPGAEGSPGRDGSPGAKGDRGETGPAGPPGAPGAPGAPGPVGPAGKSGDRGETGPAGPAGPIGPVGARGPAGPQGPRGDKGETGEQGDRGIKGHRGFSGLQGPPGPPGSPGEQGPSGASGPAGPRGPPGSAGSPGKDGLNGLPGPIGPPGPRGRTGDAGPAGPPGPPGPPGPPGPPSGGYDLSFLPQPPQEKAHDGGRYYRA
T1 sequence (P02465 80-1117 limits assumed): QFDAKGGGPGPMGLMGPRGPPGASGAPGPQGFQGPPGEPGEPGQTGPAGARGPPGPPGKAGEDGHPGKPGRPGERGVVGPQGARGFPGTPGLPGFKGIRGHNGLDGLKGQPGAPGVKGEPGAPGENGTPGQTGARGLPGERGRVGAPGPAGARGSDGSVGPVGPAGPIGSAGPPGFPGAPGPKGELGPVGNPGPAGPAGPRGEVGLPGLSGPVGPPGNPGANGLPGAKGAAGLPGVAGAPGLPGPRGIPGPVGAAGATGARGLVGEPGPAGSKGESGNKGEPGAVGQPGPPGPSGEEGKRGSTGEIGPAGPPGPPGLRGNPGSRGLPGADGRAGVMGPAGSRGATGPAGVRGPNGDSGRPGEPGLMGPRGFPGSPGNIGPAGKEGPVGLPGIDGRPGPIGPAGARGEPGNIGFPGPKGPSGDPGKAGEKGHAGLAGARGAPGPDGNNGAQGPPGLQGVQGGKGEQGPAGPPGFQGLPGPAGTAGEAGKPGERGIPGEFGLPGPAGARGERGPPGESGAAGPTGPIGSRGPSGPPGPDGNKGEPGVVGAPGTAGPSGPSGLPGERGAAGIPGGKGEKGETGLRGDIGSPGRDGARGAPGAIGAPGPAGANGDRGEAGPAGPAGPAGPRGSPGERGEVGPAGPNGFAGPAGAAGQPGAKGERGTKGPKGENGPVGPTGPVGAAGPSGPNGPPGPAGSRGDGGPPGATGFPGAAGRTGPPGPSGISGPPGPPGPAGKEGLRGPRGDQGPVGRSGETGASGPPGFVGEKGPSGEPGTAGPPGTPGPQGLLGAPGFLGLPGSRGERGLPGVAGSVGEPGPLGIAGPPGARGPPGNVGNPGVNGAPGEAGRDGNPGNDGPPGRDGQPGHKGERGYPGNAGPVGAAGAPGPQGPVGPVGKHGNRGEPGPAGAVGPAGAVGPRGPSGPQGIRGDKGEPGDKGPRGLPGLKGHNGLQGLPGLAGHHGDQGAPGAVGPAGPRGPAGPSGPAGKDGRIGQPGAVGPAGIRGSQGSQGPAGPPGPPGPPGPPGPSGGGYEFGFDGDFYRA

For `O=CCCCC=O` [GA, glutaraldehyde], the “cytotoxicity (FIG. 1 legend)” value (NIH 3T3 cells) was “cytotoxicity”, the “cytotoxicity of treated tissue” value (NIH 3T3 cells) was “continues to be cytotoxic” and the “concentration at which cells could not survive” value (NIH 3T3 cells; mouse, 72 h) was greater than 600 ng/mL. The “Melting temperature, Tendon” value (bovine tendon) was 84 ± 1.0, the “Melting temperature, Pericardium” value (bovine pericardium [1]) was 94 ± 1.5 and the “collagen fibril structure after collagenase digestion” value (bovine pericardium [2]) was “remained intact”. For the same molecule, the “rate of collagen synthesis of fibroblasts” value (human skin fibroblasts) was “inhibits collagen synthesis”, the “degradation of fixed tissue after subcutaneous implantation” value (Fischer 344 rats; periods ranging from 3 and 6 weeks (discussion)) was “no apparent degradation” and the “calcification (Von Kossa staining)” value (Fischer 344 rats; rat, in vivo) was “dystrophic calcification”. The calcification after implantation (Fischer 344 rats; rat, in vivo) was “encourages dystrophic calcification”, the “tissue reaction to implant” value (Fischer 344 rats; rat, in vivo) was “lesser inflammatory reaction” and the implant degradation (Fischer 344 rats; six weeks postoperatively, control completely degraded) was “still intact”. For the same molecule, the implant integrity (Fischer 344 rats; three weeks postoperatively, control tissues start to disaggregate) was “retain their integrity”.
